# Data from article PMC3995882, “Antimicrobial and Immunomodulatory Activities of PR-39 Derived Peptides” (PLoS ONE, 2014).
# Where a SMILES comes first, the peptide text is derived from it.
# Tests used:
# E. coli = assay: Colony counting assay (MBC); assay type: cell-based, Escherichia coli; conditions: 3 h 37°C, 10 mM phosphate buffer pH 7.0 with 1/1000 TSB, MBC = <100 CFU/ml; for MBC E. coli 0 mM NaCl: 2×10^6 CFU/ml, no NaCl added; for MBC E. coli 100 mM NaCl: 100 mM NaCl added
# Protocol: (§1) Overnight cultures of E. coli and B. globigii were grown in TSB medium at 37°C to mid-logarithmic phase. The antimicrobial activity of the PR-39 derived peptides was tested using colony counting as described before. In short, cells were collected via centrifugation at 900×g for 10 minutes, and resuspended in 10 mM phosphate buffer, pH 7.0, containing 1/1000 TSB medium (Buffer A). Cells were further diluted to 2×10^6 CFU/ml in the same buffer. Next, 25 µl of cell suspension was mixed with an equal volume of different concentrations of peptides ranging from 0–80 µM, and incubated further for 3 hours at 37°C. Ten-fold dilutions were prepared in minimal buffer containing 1/1000 TSB medium in distilled water, and 100 µl from each dilution was spread on TSA plates (Trypton Soy Agar; Oxoid). The plates were incubated at 37°C and the number of colonies was counted 24 h later to determine the number of surviving bacteria. Minimal Bactericidal Concentration (MBC) was defined as <100 CFU/ml corresponding to the detection limit of this assay. To determine the dependence of activity of PR-39 on the energy status of the cell, E. coli was incubated 30 min at 37°C in the presence of the metabolic uncouplers 50 µM carbonyl cyanide m-chlorophenylhydrazone (CCCP), or 5 mM 2,4-dinitrophenol (DNP). Subsequently, an antimicrobial activity assay was performed as described above.
# B. globigii = assay type: cell-based, Bacillus globigii; conditions: colony counting, 3 h 37°C, 10 mM phosphate buffer pH 7.0 with 1/1000 TSB, MBC = <100 CFU/ml; for MBC B. globigii 0 mM NaCl: 2×10^6 CFU/ml, no NaCl added; for MBC B. globigii +100 mM NaCl: 100 mM NaCl added
# Protocol: as §1
# [1] = tested on: Bacillus Subtilis (ATCC6633); assay: Broth dilution assay (MIC); assay type: cell-based; conditions: 50% MHB, turbidity, range of triplicate experiments
# Bacillus Globigii (TNO) = assay type: cell-based; conditions: broth dilution, 50% MHB, turbidity; range of triplicate experiments
# [2] = tested on: Bacillus Cereus ATCC 9193; assay: Broth dilution assay (MIC); assay type: cell-based; conditions: 50% MHB, turbidity, range of triplicate experiments
# [3] = tested on: Bacillus Lichen ATCC 21424; assay: Broth dilution assay (MIC); assay type: cell-based, Bacillus licheniformis; conditions: 50% MHB, turbidity, range of triplicate experiments
# E.coli ATCC25922 = assay: Broth dilution assay (MIC); assay type: cell-based, Escherichia coli; conditions: 50% MHB, turbidity, range of triplicate experiments
# E.coli K88 403 = conditions: broth dilution, 50% MHB, turbidity; range of triplicate experiments
# Protocol: Initial screening for antibacterial activity of PR-39 was performed using broth dilution assays. Bacteria were grown to mid-logarithmic phase in MHB medium. The optical density was measured and bacteria were diluted to 2×10^6 CFU/ml. Subsequently 25 µl bacteria were incubated with 25 µl peptide in polypropylene 96 wells plates and incubated at 37°C. After 3 h 200 µl MHD medium was added and samples were further incubated overnight. Minimal inhibitory concentrations (MIC) were determined by turbidity measurement of the wells.
# E.coli K12 = assay: Broth dilution assay (MIC); assay type: cell-based, Escherichia coli; conditions: 50% MHB, turbidity, range of triplicate experiments
# E.coli ATCC 4157 = assay: Broth dilution assay (MIC); assay type: cell-based, Escherichia coli; conditions: 50% MHB, turbidity, range of triplicate experiments
# [4] = tested on: Streptococcus Pyogenes (ATCC 19616); assay: Broth dilution assay (MIC); assay type: cell-based; conditions: 50% MHB, turbidity, range of triplicate experiments
# [5] = tested on: Enterococcus Faecalis (ATCC 29213); assay: Broth dilution assay (MIC); assay type: cell-based; conditions: 50% MHB, turbidity, range of triplicate experiments
# [6] = tested on: Enterococcus Faeceum E155; assay type: cell-based; conditions: broth dilution, 50% MHB, turbidity; range of triplicate experiments
# [7] = tested on: serine proteases, elastase, and aminopeptidases; conditions: cited from earlier work
# From the text: Current literature on PR-39 has shifted from an initial focus on antibacterial activity to potential new roles in host defence mechanisms.
SMILES,MBC E. coli 0 mM NaCl (E. coli) [µM],MBC E. coli 100 mM NaCl (E. coli) [µM],MBC B. globigii 0 mM NaCl (B. globigii) [µM],MBC B. globigii +100 mM NaCl (B. globigii) [µM],further results
CC(C)C[C@H](NC(=O)[C@H](Cc1ccc(O)cc1)NC(=O)[C@@H]1CCCN1C(=O)[C@@H]1CCCN1C(=O)[C@H](CCCNC(=N)N)NC(=O)[C@@H]1CCCN1C(=O)[C@H](CCCNC(=N)N)NC(=O)[C@H](CCCNC(=N)N)NC(=O)[C@@H](N)CCCNC(=N)N)C(=O)N1CCC[C@H]1C(=O)N[C@@H](CCCNC(=N)N)C(=O)N1CCC[C@H]1C(=O)N[C@@H](CCCNC(=N)N)C(=O)N1CCC[C@H]1C(=O)N1CCC[C@H]1C(=O)O [PR-39(1–15)] (H-RRRPRPPYLPRPRPP-OH),5,>40,5,>40,–
CC(C)C[C@H](NC(=O)[C@H](Cc1ccc(O)cc1)NC(=O)[C@@H]1CCCN1C(=O)[C@@H]1CCCN1C(=O)[C@H](CCCNC(=N)N)NC(=O)[C@@H]1CCCN1C(=O)[C@H](CCCNC(=N)N)NC(=O)[C@H](CCCNC(=N)N)NC(=O)[C@@H](N)CCCNC(=N)N)C(=O)N1CCC[C@H]1C(=O)N[C@@H](CCCNC(=N)N)C(=O)N1CCC[C@H]1C(=O)N[C@@H](CCCNC(=N)N)C(=O)N1CCC[C@H]1C(=O)N1CCC[C@H]1C(=O)N1CCC[C@H]1C(=O)N[C@@H](Cc1ccccc1)C(=O)N[C@@H](Cc1ccccc1)C(=O)O [PR-39(1–18)] (H-RRRPRPPYLPRPRPPPFF-OH),5,20,2.5,10,–
CC(C)C[C@H](NC(=O)[C@H](CCCNC(=N)N)NC(=O)[C@@H]1CCCN1C(=O)[C@@H]1CCCN1C(=O)[C@H](Cc1ccccc1)NC(=O)[C@H](Cc1ccccc1)NC(=O)[C@@H]1CCCN1C(=O)[C@@H]1CCCN1C(=O)[C@@H]1CCCN1C(=O)[C@H](CCCNC(=N)N)NC(=O)[C@@H]1CCCN1C(=O)[C@H](CCCNC(=N)N)NC(=O)[C@@H]1CCCN1C(=O)[C@H](CC(C)C)NC(=O)[C@H](Cc1ccc(O)cc1)NC(=O)[C@@H]1CCCN1C(=O)[C@@H]1CCCN1C(=O)[C@H](CCCNC(=N)N)NC(=O)[C@@H]1CCCN1C(=O)[C@H](CCCNC(=N)N)NC(=O)[C@H](CCCNC(=N)N)NC(=O)[C@@H](N)CCCNC(=N)N)C(=O)O [PR-39(1–22)] (H-RRRPRPPYLPRPRPPPFFPPRL-OH),1.25,2.5,2.5,10,–
CC[C@H](C)[C@H](NC(=O)[C@H](CCCNC(=N)N)NC(=O)[C@@H]1CCCN1C(=O)[C@@H]1CCCN1C(=O)[C@H](CC(C)C)NC(=O)[C@H](CCCNC(=N)N)NC(=O)[C@@H]1CCCN1C(=O)[C@@H]1CCCN1C(=O)[C@H](Cc1ccccc1)NC(=O)[C@H](Cc1ccccc1)NC(=O)[C@@H]1CCCN1C(=O)[C@@H]1CCCN1C(=O)[C@@H]1CCCN1C(=O)[C@H](CCCNC(=N)N)NC(=O)[C@@H]1CCCN1C(=O)[C@H](CCCNC(=N)N)NC(=O)[C@@H]1CCCN1C(=O)[C@H](CC(C)C)NC(=O)[C@H](Cc1ccc(O)cc1)NC(=O)[C@@H]1CCCN1C(=O)[C@@H]1CCCN1C(=O)[C@H](CCCNC(=N)N)NC(=O)[C@@H]1CCCN1C(=O)[C@H](CCCNC(=N)N)NC(=O)[C@H](CCCNC(=N)N)NC(=O)[C@@H](N)CCCNC(=N)N)C(=O)O [PR-39(1–26)] (H-RRRPRPPYLPRPRPPPFFPPRLPPRI-OH),2.5,1.25,5,5,–
CC[C@H](C)[C@H](NC(=O)[C@H](CCCNC(=N)N)NC(=O)[C@@H]1CCCN1C(=O)[C@@H]1CCCN1C(=O)[C@H](CC(C)C)NC(=O)[C@H](CCCNC(=N)N)NC(=O)[C@@H]1CCCN1C(=O)[C@@H]1CCCN1C(=O)[C@H](Cc1ccccc1)NC(=O)[C@H](Cc1ccccc1)NC(=O)[C@@H]1CCCN1)C(=O)N1CCC[C@H]1C(=O)N1CCC[C@H]1C(=O)NCC(=O)N[C@@H](Cc1ccccc1)C(=O)N1CCC[C@H]1C(=O)N1CCC[C@H]1C(=O)N[C@@H](CCCNC(=N)N)C(=O)N[C@@H](Cc1ccccc1)C(=O)N1CCC[C@H]1C(=O)N1CCC[C@H]1C(=O)N[C@@H](CCCNC(=N)N)C(=O)N[C@@H](Cc1ccccc1)C(=O)N1CCC[C@H]1C(=O)O [PR-39(16–39)] (H-PFFPPRLPPRIPPGFPPRFPPRFP-OH),10,>40,10,>40,–
CC[C@H](C)[C@H](NC(=O)[C@H](CCCNC(=N)N)NC(=O)[C@@H]1CCCN1C(=O)[C@@H]1CCCN1C(=O)[C@H](CC(C)C)NC(=O)[C@H](CCCNC(=N)N)NC(=O)[C@@H]1CCCN1)C(=O)N1CCC[C@H]1C(=O)N1CCC[C@H]1C(=O)NCC(=O)N[C@@H](Cc1ccccc1)C(=O)N1CCC[C@H]1C(=O)N1CCC[C@H]1C(=O)N[C@@H](CCCNC(=N)N)C(=O)N[C@@H](Cc1ccccc1)C(=O)N1CCC[C@H]1C(=O)N1CCC[C@H]1C(=O)N[C@@H](CCCNC(=N)N)C(=O)N[C@@H](Cc1ccccc1)C(=O)N1CCC[C@H]1C(=O)O [PR-39(20–39)] (H-PRLPPRIPPGFPPRFPPRFP-OH),5,>40,20,>40,–
CC[C@H](C)[C@H](NC(=O)[C@H](CCCNC(=N)N)NC(=O)[C@@H]1CCCN1)C(=O)N1CCC[C@H]1C(=O)N1CCC[C@H]1C(=O)NCC(=O)N[C@@H](Cc1ccccc1)C(=O)N1CCC[C@H]1C(=O)N1CCC[C@H]1C(=O)N[C@@H](CCCNC(=N)N)C(=O)N[C@@H](Cc1ccccc1)C(=O)N1CCC[C@H]1C(=O)N1CCC[C@H]1C(=O)N[C@@H](CCCNC(=N)N)C(=O)N[C@@H](Cc1ccccc1)C(=O)N1CCC[C@H]1C(=O)O [PR-39(24–39)] (H-PRIPPGFPPRFPPRFP-OH),40,>40,40,>40,–
CC[C@H](C)[C@H](NC(=O)[C@H](CCCNC(=N)N)NC(=O)[C@@H]1CCCN1C(=O)[C@@H]1CCCN1C(=O)[C@H](CC(C)C)NC(=O)[C@H](CCCNC(=N)N)NC(=O)[C@@H]1CCCN1C(=O)[C@@H]1CCCN1C(=O)[C@H](Cc1ccccc1)NC(=O)[C@H](Cc1ccccc1)NC(=O)[C@@H]1CCCN1C(=O)[C@@H]1CCCN1C(=O)[C@@H]1CCCN1C(=O)[C@H](CCCNC(=N)N)NC(=O)[C@@H]1CCCN1C(=O)[C@H](CCCNC(=N)N)NC(=O)[C@@H]1CCCN1C(=O)[C@H](CC(C)C)NC(=O)[C@H](Cc1ccc(O)cc1)NC(=O)[C@@H]1CCCN1C(=O)[C@@H]1CCCN1C(=O)[C@H](CCCNC(=N)N)NC(=O)[C@@H]1CCCN1C(=O)[C@H](CCCNC(=N)N)NC(=O)[C@H](CCCNC(=N)N)NC(=O)[C@@H](N)CCCNC(=N)N)C(=O)N1CCC[C@H]1C(=O)N1CCC[C@H]1C(=O)NCC(=O)N[C@@H](Cc1ccccc1)C(=O)N1CCC[C@H]1C(=O)N1CCC[C@H]1C(=O)N[C@@H](CCCNC(=N)N)C(=O)N[C@@H](Cc1ccccc1)C(=O)N1CCC[C@H]1C(=O)N1CCC[C@H]1C(=O)N[C@@H](CCCNC(=N)N)C(=O)N[C@@H](Cc1ccccc1)C(=O)N1CCC[C@H]1C(=O)O [PR-39] (H-RRRPRPPYLPRPRPPPFFPPRLPPRIPPGFPPRFPPRFP-OH),1.25,2.5,2.5,5,"MIC [1]: 2.5 to 5 µM; MIC (Bacillus Globigii (TNO)): 1.25 to 5 µM; MIC [2]: 5 to 20 µM; MIC [3]: 5 µM; MIC (E.coli ATCC25922): 2.5 to 10 µM; MIC (E.coli K88 403): 1.25 to 2.5 µM; MIC (E.coli K12): 1.25 to 2.5 µM; MIC (E.coli ATCC 4157): 1.25 to 2.5 µM; MIC [4]: 2.5 to 5 µM; MIC [5]: 10 µM; MIC [6]: 1.25 to 2.5 µM; resistance to proteases [7]: resistant to serine proteases, elastase, and aminopeptidases"
